Laboratory results from patent US20250376473A1, “PRMTS INHIBITOR AND USE THEREOF” (Cytosinlab Therapeutics Co., Ltd., priority 2022, published 2025).
Where two headings read alike, the source gives them in different places.

Experiments:
[1] = tested on: HCT116-MTAP-KO cells (HCT116 MTAP null); assay: Proliferation inhibition of HCT116 MTAP-KO cells in vitro (CellTiter Glo); type: cell-based; settings: 6 days, 9 concentrations starting from 3 μM, read-out: Cell proliferation inhibition rate HCT116 MTAP null IC50 (nm)
Summary of the method: (§1)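 HCT116 (MTAP WT) or CRISPR MTAP-knockout HCT116 cells (100 per well) were exposed for 6 days at 37 °C to 9-point, 3-fold dilutions starting at 30 μM (WT) or 3 μM (KO), with 0.4% DMSO final. Viability was read by CellTiter-Glo luminescence, and IC50 came from a four-parameter fit.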

HCT116 MTAP WT cells = assay: Proliferation inhibition of HCT116 cells in vitro (CellTiter Glo); type: cell-based; settings: 6 days, 9 concentrations starting from 30 μM, read-out: Cell proliferation inhibition rate HCT116 MTAP WT IC50 (nm)
Summary of the method: as §1

Structure (SMILES)	IC50 [1] [nM]	IC50 (HCT116 MTAP WT cells) [nM]	IC50 ([1]; HCT116-MTAP null, 144 h) [nM]	IC50 (HCT116 MTAP WT cells; Homo sapiens, HCT-116, 144 h) [nM]
Cc1ccc(N(Cc2ccc(C(F)(F)F)cn2)C(=O)c2cc3c(cc2F)nc(N)c2cnc(C)n23)c(C)n1 [Example 187]			< 100	1000 to 10000
Cc1ncc2c(N)nc3cc(F)c(C(=O)N(Cc4ccc(C(F)(F)F)nn4)c4ccnn4C)cc3n12 [Example 223]			< 100	1000 to 10000
Cc1cccc(-c2csc(CN(CC(C)C)C(=O)c3ccc4nc(N)c5c(C)ncn5c4c3)n2)n1 [Example 312]			< 100	1000 to 10000
Cc1ncc2c(N)nc3cc(F)c(C(=O)N(Cc4cnn(C5CC5)c4)c4ccnn4C)cc3n12 [Example 317]			< 100	1000 to 10000
CCN(Cc1ccc(C(F)(F)F)cn1)C(=O)c1cc2c(cn1)nc(N)c1cnc(C)n12 [Example 9]			< 100	1000 to 10000
Cc1nn(C)cc1N(Cc1ncc(C(F)(F)F)s1)C(=O)c1cc2c(cc1F)nc(N)c1cnc(C)n12 [Example 203]			< 100	1000 to 10000
Cc1ncc2c(N)nc3cc(F)c(C(=O)N(Cc4cnn(C(F)(F)F)c4)c4ccnn4C)cc3n12 [Example 213]	< 100	1000 to 10000		
Cc1nn(C)cc1N(Cc1ccc(OC2CC2)cn1)C(=O)c1cc2c(cc1F)nc(N)c1c(C)ncn12 [Example 161]			< 100	< 100

Second part, the compound after the results:

IC50 [1] [nM]	IC50 (HCT116 MTAP WT cells) [nM]	IC50 ([1]; HCT116-MTAP null, 144 h) [nM]	IC50 (HCT116 MTAP WT cells; Homo sapiens, HCT-116, 144 h) [nM]	Structure (SMILES)
< 100	100 to 1000			Cc1ncn2c1c(N)nc1cc(F)c(C(=O)N3C(C)COCC3c3ccc(C(F)F)cn3)cc12 (centres unmarked) [Example 101]
		100 to 1000	1000 to 10000	Cc1[nH]ncc1N(Cc1ccc(C(F)(F)F)cn1)C(=O)c1cc2c(cc1F)nc(N)c1cnc(C)n12 [Example 151]
		< 100	1000 to 10000	Cc1cn(C)nc1N(Cc1ccc(C(F)(F)F)cn1)C(=O)c1cc2c(cc1F)nc(N)c1cnc(C)n12 [Example 179]
100 to 1000	1000 to 10000			CCOc1ccc(CN(CC)C(=O)c2cc3c(cc2F)nc(N)c2c(C)ncn23)nn1 [Example 95]
		100 to 1000	1000 to 10000	CCN(Cc1ccc(OC2COC2)cn1)C(=O)c1cc2c(cc1F)nc(N)c1cnc(C)n12 [Example 99]
		< 100	1000 to 10000	CCOCCc1ccc(C2COCC(C)N2C(=O)c2cc3c(cc2F)nc(N)c2c(C)ncn23)nc1 (centres unmarked) [Example 103]
		< 100	100 to 1000	Cc1cn2c(n1)c(N)nc1cc(F)c(C(=O)N3[C@H](C)COC[C@@H]3c3cn4cc(C(F)(F)F)ccc4n3)cc12 [Example 31]
		< 100	1000 to 10000	COC1CCC1N(Cc1cn2cc(C(F)(F)F)ccc2n1)C(=O)c1cc2c(cc1F)nc(N)c1cnc(C)n12 (centres unmarked) [Example 240]
		< 100	1000 to 10000	Cc1ncc2c(N)nc3cnc(C(=O)N(Cc4ccc(C(F)(F)F)cn4)c4ccnn4C)cc3n12 [Example 211]
		100 to 1000	1000 to 10000	Cc1ncc2c(N)nc3cc(F)c(C(=O)N(Cc4ccc(C(F)(F)F)cn4)c4ncn(C)n4)cc3n12 [Example 115]
		< 100	1000 to 10000	Cc1ncc2c(N)nc3cc(F)c(C(=O)N4C(C)COCC4c4ccc(OC5CC5)cc4)cc3n12 (centres unmarked) [Example 87]
